The values below come from ChEMBL document CHEMBL1156579, “Orally active factor Xa inhibitors: investigation of a novel series of 3-amidinophenylsulfonamide derivatives using an amidoxime prodrug strategy” (Bioorg Med Chem Lett, 2008).

pKi: −log10 of the molar value.

One data set deals with Coagulation factor X (Homo sapiens, UniProt P00742). As to the kind of experiment: Inhibition of human factor 10a by Dixon-plot method.
The target in a further data set is Prothrombin (Homo sapiens, UniProt P00734). As to the kind of experiment: Inhibition of human thrombin by Dixon-plot method.
Another data set deals with Trypsin (Homo sapiens, UniProt P07477+P07478+P35030). As to the kind of experiment: Inhibition of human trypsin by Dixon-plot method. Type of data set: protein assay.
Data set [1] is described as follows: Systemic clearance in rat. Type of data set: ADME, organism-based. To be noted: in vivo.
A further data set relates to Plasma. As to the kind of experiment: Anticoagulant activity in human plasma assessed as concentration required to double prothrombin time. Type of data set: functional.
The nature of data set [2]: Total clearance in iv dosed rat. Type of data set: ADME, organism-based. The settings on record: in vivo.
The nature of data set [3]: Oral bioavailability in rat. Type of data set: ADME, organism-based. The settings on record: in vivo.
Data set [4] in a line: Oral bioavailability in mouse. Type of data set: ADME, organism-based. To be noted: in vivo.
A short description of data set [5]: Oral bioavailability in dog. Type of data set: ADME, organism-based, Canis lupus familiaris. To be noted: in vivo.
Data set [6] can be described thus: Oral bioavailability in cynomolgus monkey. Type of data set: ADME, organism-based, Macaca fascicularis. The settings on record: in vivo.
Data set [7] is described as follows: Oral bioavailability in rabbit. Type of data set: ADME, organism-based, Oryctolagus cuniculus. The settings on record: in vivo.
The subject of the next data set is Rattus norvegicus. Put plainly: Stability in iv dosed rat assessed as prodrug conversion. Type of data set: ADME, organism-based. To be noted: in vivo.
For another data set, the system named is Mus musculus. Put plainly: Antithrombotic activity against thromboplastin-induced lethal thromboembolism in po dosed thrombosis mouse model assessed as survival. Type of data set: functional.
The nature of data set [8]: Oral bioavailability in mouse at 30 mg/kg. Type of data set: ADME, organism-based. To be noted: in vivo.

Usually pKi stands for −log10 of the Ki, conventionally taken in molar units. Broadly, the IC50 is the midpoint of a concentration-inhibition curve. One may read the clearance as the volume of plasma or blood freed of the substance per unit of time. The bioavailability is the share of a dose that reaches the circulation, judged against a reference dose that is usually intravenous. As usually defined, the Ki is the equilibrium dissociation constant of an inhibitor or competing ligand from its target. By ED50 is commonly meant the dose at which the effect has come halfway, by size or by number of responders.

Coagulation factor X, sequence (P00742 41-179 limits assumed): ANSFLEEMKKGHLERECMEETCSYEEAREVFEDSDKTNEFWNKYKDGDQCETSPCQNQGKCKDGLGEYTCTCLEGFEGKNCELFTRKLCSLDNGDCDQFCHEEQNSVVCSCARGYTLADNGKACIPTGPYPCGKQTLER
Coagulation factor X, sequence (P00742 235-488 limits assumed): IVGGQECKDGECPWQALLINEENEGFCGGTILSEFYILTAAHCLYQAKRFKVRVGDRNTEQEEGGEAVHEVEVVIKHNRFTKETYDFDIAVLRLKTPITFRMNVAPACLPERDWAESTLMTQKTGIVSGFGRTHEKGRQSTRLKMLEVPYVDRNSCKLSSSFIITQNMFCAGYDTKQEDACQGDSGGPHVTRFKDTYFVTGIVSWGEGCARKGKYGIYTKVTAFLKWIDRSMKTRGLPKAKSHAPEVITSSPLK

As to `CC(C)Oc1ccc(CCNS(=O)(=O)c2cc(C(=N)N)ccc2O)cc1`, the pKi was 7.00 at Coagulation factor X and less than 5.00 at Prothrombin. This compound also returned an IC50 against Trypsin of 1.7 µM.

On Coagulation factor X, `CC(C)c1ccc(CCN(CC(=O)O)S(=O)(=O)c2cc(C(=N)N)ccc2O)cc1` gave a pKi of 7.85. Further, the clearance in data set [1] and in data set [2] was 8.1 mL/min throughout. Moreover, in the data set with Plasma, the Activity stood at 1.4 µM.

Take `CC(C)c1ccc(CCNS(=O)(=O)c2cc(C(=N)N)ccc2O)cc1`: the pKi on Coagulation factor X was 7.54; on Prothrombin, less than 5.00. In [3], this compound displayed a bioavailability of 3.7%. Also, the Activity with Plasma is 2.6 µM. This compound had a clearance in data set [2] of 27 mL/min. The Ki at Trypsin is 0.8 µM.

For `CC(=N)N1CCC(c2ccc(NC(=O)CN(Cc3cccc(OCC(=O)O)c3)c3cccc(C(=N)N)c3)cc2)CC1`, the bioavailability in data set [3] is 0.9%. The Activity with Plasma amounted to 0.84 µM. In data set [2], this compound had a clearance of 23 mL/min. At Prothrombin, this compound showed a pKi of 4.59. In addition, the Ki on Trypsin was determined as 6.17 µM.

`CS(=O)(=O)c1ccccc1-c1ccc(CCNS(=O)(=O)c2cc(C(=N)N)ccc2O)c(NCC(=O)O)c1` gave a pKi at Coagulation factor X of 8.24. This compound gave a clearance in data set [2] of 25 mL/min.

In the case of `CCCCOC(=O)COc1cc(-c2ccccc2S(C)(=O)=O)ccc1CCNS(=O)(=O)c1cc(C(=N)NO)ccc1O.Cl`, the bioavailability is 15% in data set [4], 4.9% in [5], 11% in [6] and 23% in data set [7].

At Coagulation factor X, `CC(C)c1ccc(CCNS(=O)(=O)c2cc(C(=N)N)ccc2Cl)cc1` showed a pKi of 5.52. For the same compound, on Trypsin, the Ki was found to be 4 µM.

`CS(=O)(=O)c1ccccc1-c1ccc(CCNS(=O)(=O)c2cc(C(=N)N)ccc2O)c(OCC(=O)O)c1`: in data set [2], the clearance amounted to 7.5 mL/min.

In the case of `CC(C)c1ccc(CCNS(=O)(=O)c2cc(C(=N)N)ccc2O)c(NCC(=O)O)c1`, the pKi at Coagulation factor X is 7.21. This compound had a clearance in data set [2] of 3.2 mL/min.

As to `CC(C)c1ccc(CCNS(=O)(=O)c2cc(C(=N)N)ccc2O)c(NC(=O)C(=O)O)c1`, on Coagulation factor X, the negative logarithm of the Ki (pKi) was 8.01. In data set [2], this compound yielded a clearance of 20 mL/min.

On to `COc1ccc(C(=N)N)cc1S(=O)(=O)NCCc1ccc(C(C)C)cc1`, for which the pKi at Coagulation factor X is 4.85.

Turning to `CS(=O)(=O)c1ccccc1-c1ccc(CCNS(=O)(=O)c2cc(C(=N)N)ccc2O)c(OCC(=O)O)c1.Cl`, in the data set with Plasma, the Activity is 1.01 µM. Further, the negative logarithm of the Ki (pKi) on Prothrombin was 4.24. Moreover, the inhibition constant (Ki) on Trypsin came to 1.17 µM.

Turning to `CC(C)c1ccc(CCNS(=O)(=O)c2cc(/C(N)=N/O)ccc2O)c(OCC(=O)O)c1`, the pKi on Coagulation factor X is less than 5.00. In [3], this compound returned a bioavailability of 9.2%. Moreover, the clearance in data set [2] is 7.5 mL/min. Also, the Activity with Rattus norvegicus was 57%.

In the case of `CC(C)c1ccc(CCNS(=O)(=O)c2cccc(C(=N)N)c2)cc1`, the results for the pKi at Coagulation factor X and on Prothrombin were 5.68 and less than 5.00, respectively. At Trypsin, this compound returned an IC50 of 9.7 µM.

`CC(C)c1ccc(CCN(CC(=O)O)S(=O)(=O)c2cc(/C(N)=N/O)ccc2O)cc1`: the pKi on Coagulation factor X was 5.15. The same compound yielded a clearance in [2] of 13 mL/min. In addition, in the data set with Rattus norvegicus, the Activity is given as 16%.

As for `CC(C)(C)c1ccc(CCNS(=O)(=O)c2cc(C(=N)N)ccc2O)cc1`, the pKi on Coagulation factor X was 7.57.

For `CCOC(=O)COc1cc(C(C)C)ccc1CCNS(=O)(=O)c1cc(C(=N)NO)ccc1O`, the ED50 in the data set on Mus musculus came out at 15.8 mg/kg. In addition, the pKi on Coagulation factor X is 5.46. Besides, the bioavailability in data set [3] came out at 13%.

Compound `CC(C)c1ccc(CCNS(=O)(=O)c2cc(C(=N)N)ccc2O)c(OCC(=O)O)c1` showed a negative logarithm of the Ki (pKi) on Coagulation factor X of 7.29. The Activity with Plasma was determined as 7.2 µM. Besides, the clearance in [2] came to 1.7 mL/min. In [8], this compound showed a bioavailability of 38%.

Compound `CCOC(=O)CN(CCc1ccc(C(C)C)cc1)S(=O)(=O)c1cc(/C(N)=N/O)ccc1O` gave a pKi on Coagulation factor X of 5.43. The bioavailability in data set [3] is less than 1%.

In turn, `CC(C)c1ccc(CCNS(=O)(=O)c2cc(/C(N)=N/O)ccc2O)cc1` gave a pKi at Coagulation factor X of 5.14. This compound also gave a bioavailability in data set [3] of 6.6%. In data set [2], this compound gave a clearance of 27 mL/min. The Activity with Rattus norvegicus is listed as 1%.

On to `CC(C)c1ccc(CCN(C)S(=O)(=O)c2cc(C(=N)N)ccc2O)cc1`, for which, on Coagulation factor X, the negative-log Ki (pKi) is 7.23. Moreover, the Ki on Trypsin was 0.77 µM.
